From publication PMC6753678, “Fueling Open Innovation for Malaria Transmission-Blocking Drugs: Hundreds of Molecules Targeting Early Parasite Mosquito Stages” (Frontiers in Microbiology, 2019)

Key:
[1] = test system: P. falciparum late stage (stages IV-V) gametocytes; set-up: method as in Almela et al 2016; settings: P. falciparum late stage gametocyte ATP assay, TCAMS screen; ref Almela et al 2016; read-out: Pf GCT ATP IC50; cited from earlier work
[2] = test system: P. falciparum late stage (stages IV-V) gametocytes; assay: P. falciparum late stage gametocyte ATP depletion assay (Pf GC-ATP); settings: 1: YES; 0: NO; >10-fold selectivity over cytotoxicity
[3] = test system: HepG2 cells; assay: HepG2 cytotoxicity assay; settings: HepG2 cytotoxicity unified across screens; >25 set to 25.00
Method in brief: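 Percent inhibition derived from fluorescent viability readout, normalised to DMSO (negative) and 50 μM doxorubicin (positive). Compound incubation lasted 48 h at 37°C, 5% CO2, with 2,500 HepG2 cells/well in MEM plus 10% FBS and 1% NEAA.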

SMILES	IC50 [1] [nM]	Is compound selective in assay? Pf GC-ATP active? [2]	Unified cytotox [3] [µM]
COc1ccc2c(=NN=Cc3ccc(OC)c4ccccc34)cc(C)[nH]c2c1 [TCMDC-142218]	770	1 (1: YES)	7.86
CC(C)CNCc1cccc(-c2ccc(CN(CCCN3CCN(C)CC3)C(=O)/C=C/c3ccccc3)cc2)c1.O=C(O)C(F)(F)F [TCMDC-140545]	630	1 (1: YES)	6.65
Cl.NCCCOc1cnc(-c2ccccc2)c2nc(-c3nonc3N)n(CCc3ccccc3)c12 [TCMDC-136216]	1400	0 (0: NO)	5.61
Cc1cc(-c2cccc(CNC3CCCC3)c2)ccc1S(=O)(=O)NCCN1CCCC1.O=C(O)C(F)(F)F [TCMDC-132279]	1240	0 (0: NO)	7.50
NCc1ccc(CNCc2cccc(-c3ccc(-c4nc5ccccc5[nH]4)cc3)c2)cc1.O=C(O)C(F)(F)F [TCMDC-132815]	480	1 (1: YES)	21.82
O=C(NCCCCN1CCC(c2c[nH]c3ccc(-c4ccccc4)cc23)CC1)c1ccc(-c2ccccc2)cc1.O=C(O)C(=O)O [TCMDC-139064]	1830	0 (0: NO)	9.40
CCn1c(-c2nonc2N)nc2c(-c3cccc(NC(=O)Nc4cccc(C#N)c4)c3)ncc(OCCCN)c21.O=C(O)C(F)(F)F [TCMDC-136195]	3510	0 (0: NO)	24.70
CC(C)CNCc1cccc(-c2cccc(CN(CCCN3CCN(C)CC3)C(=O)/C=C/c3ccccc3)c2)c1.O=C(O)C(F)(F)F [TCMDC-140541]	560	1 (1: YES)	7.47
CCn1c(-c2nonc2N)nc2c(-c3cccc(NC(=O)Nc4ccccc4OC)c3)ncc(OCCCN)c21.O=C(O)C(F)(F)F [TCMDC-136190]	440	1 (1: YES)	5.90
CCCCCCC(N)c1ccc(OCCCOc2ccc(C(N)CCCCCC)cc2)cc1.Cl (stereo not drawn) [TCMDC-137621]	53.3	1 (1: YES)	1.90
CN(C)CCN(Cc1ccccc1-c1ccc(CNCCc2ccccc2)cc1)C(=O)NC1CCCCC1.O=C(O)C(F)(F)F [TCMDC-140626]	350	1 (1: YES)	6.40
FC(F)c1nc2ccccc2n1-c1nc(N2CCOCC2)nc(N2CCOCC2)n1 [TCMDC-137004]	5440	0 (0: NO)	1.58
CN(CCCNCc1cccc2ccccc12)CCCNCc1cccc2ccccc12.Cl [TCMDC-137905]	230	1 (1: YES)	5.72
CCc1c(CCNCCCC(C)CCNCCc2ccc(OC)c(OC)c2CC)ccc(OC)c1OC.Cl (stereo not drawn) [TCMDC-132065]	450	1 (1: YES)	6.00
CC(C)CNCc1cccc(-c2cccc(CN(CCCN3CCN(C)CC3)C(=O)CCC3CCCC3)c2)c1.O=C(O)C(F)(F)F [TCMDC-140554]	600	0 (0: NO)	4.55
CN1CCC(C(=O)N(Cc2ccc(-c3ccc(CNCCc4ccccc4)cn3)cc2)C2CCN(Cc3ccccc3)CC2)CC1.O=C(O)C(F)(F)F [TCMDC-141552]	900	1 (1: YES)	9.27

SMILES	IC50 [1] [nM]	Is compound selective in assay? Pf GC-ATP active? [2]	Unified cytotox [3] [µM]
Cc1cccc2nc(-c3ccc(-c4cccc(CNCCN5CCNCC5)c4)cc3)[nH]c12 [TCMDC-132867]	840	1 (1: YES)	13.40
O=C(COc1ccccc1)N(Cc1ccc(-c2ccc(CNC3Cc4ccccc4C3)cc2)cc1)C1CCNCC1.O=C(O)C(F)(F)F [TCMDC-141450]	990	0 (0: NO)	7.80
COCCCNC(=S)NN=C(C)c1ccccn1 [TCMDC-137907]	160	1 (1: YES)	17.00
Fc1ccc(N(c2nc(-c3cc(F)cc(C(F)(F)F)c3)cs2)C2CCNCC2)cc1.O=C(O)C(F)(F)F [TCMDC-136656]	3280	0 (0: NO)	6.60
COc1cc(CCNC(=N)/C=C/c2ccc(Cl)cc2)ccc1Cl.Cl [TCMDC-137457]	280	1 (1: YES)	14.00
CCOc1ccc2ccccc2c1CNCCCCCCNCc1c(OCC)ccc2ccccc12.CS(=O)(=O)O [TCMDC-137791]	700	0 (0: NO)	1.75
Cl.c1ccc2c(c1)cc(CNCCCN1CCN(CCCNCc3cc4ccccc4c4ccccc34)CC1)c1ccccc12 [TCMDC-137914]	1110	1 (1: YES)	13.70
CC(C)CCNCc1ccc(OCc2cccc(COc3ccc(CNCCC(C)C)cc3I)c2)c(I)c1.Cl [TCMDC-137274]	370	1 (1: YES)	5.30
CC(C)CNCc1cccc(-c2cccc(CN(CCN(C)C)C(=O)Nc3ccccc3)c2)c1.O=C(O)C(F)(F)F [TCMDC-140592]	660	1 (1: YES)	15.78
O=C(Nc1ccc(Cl)c(Cl)c1)Nc1ccccc1N1CCNCC1.O=C(O)C(F)(F)F [TCMDC-133727]	7420	0 (0: NO)	11.20
Nc1cc(C=Cc2ccc([N+](=O)[O-])o2)nc2ccccc12 [TCMDC-142295]	200	1 (1: YES)	11.70
CS(=O)(=O)O.FC(F)(F)COc1c(CCNCCCCNCCc2ccc3ccccc3c2OCC(F)(F)F)ccc2ccccc12 [TCMDC-137169]	100	1 (1: YES)	2.80
CCCCN(CCCC)CCCCNc1c2ccccc2nc2ccccc12.Cl [TCMDC-137461]	550	1 (1: YES)	19.00
O=C(Nc1ccc(F)c(C(F)(F)F)c1)NC1CCN(CCCCCNC(=O)C2CC2c2ccc(Cl)c(Cl)c2)CC1 (stereo not drawn) [TCMDC-136259]	4350	0 (0: NO)	6.40
CCc1c(CCNCCCCCCNCCc2ccc(OC)c(OC)c2C)ccc(OC)c1OC.Cl [TCMDC-132051]	770	1 (1: YES)	7.75
COc1cccc(CCc2c(CCNCCCCCCNCCc3ccccc3)ccc(OC)c2OC)c1.Cl [TCMDC-132105]	180	1 (1: YES)	7.70
